In paper PMC8012331, “Drug-induced hepatic steatosis in absence of severe mitochondrial dysfunction in HepaRG cells: proof of multiple mechanism-based toxicity” (Cell Biology and Toxicology, 2020):

What was measured:
ATP citrate lyase (ACLY) = assay: RT-qPCR ACLY mRNA in HepaRG cells; format: cell-based, human; conditions: 4 days, vs control
Protocol: (§1) Total RNA was extracted with the Nucleospin RNA isolation system purchased from Macherey-Nagel (Düren, Germany), which included a DNase treatment step. Quantification of isolated RNAs was assessed using a Nanodrop 1000 (Thermo Fisher Scientific, Waltham, MA). RNAs were reverse-transcribed into cDNAs using the High-Capacity cDNA Reverse Transcription Kit purchased from Applied Biosystems (Woolston, UK). Gene expression was assessed by real-time quantitative PCR analysis (RT-qPCR) using SYBR Green PCR Master Mix (Applied Biosystems) and a 384-well QuantStudio™ 7 Flex Real-Time PCR System (Thermo Fisher Scientific). Sequences of the primers used to measure gene expression are presented in Supplementary Table 3. Expression of GAPDH was chosen as reference and the 2^−ΔΔCt calculation method was used to express the relative expression of each selected gene.

[1] = system: fatty acid synthase (FASN); assay: RT-qPCR FASN mRNA in HepaRG cells; format: cell-based, human; conditions: 4 days, vs control
Protocol: as §1

HepaRG cells = assay: Cellular ATP level (CellTiter-Glo) in HepaRG cells; format: cell-based, human; conditions: 4 days, vs controls
Protocol: Cellular ATP level was measured using the CellTiter-Glo® Luminescent Cell Viability assay purchased from Promega (Charbonnières, France), according to the manufacturer’s instructions. Briefly, control and treated HepaRG cells were first washed with warm PBS and kept for 30 min at room temperature in phenol red-free William’s E medium. Cells were next incubated with the CellTiter-Glo® reagent for 10 min at room temperature. Cells were then transferred in opaque-walled multiwell plates and the luminescent signal was quantified using a POLARstar Omega microplate reader (BMG Labtech, Ortenberg, Germany). Results were expressed in comparison to control cells.

[2] = system: isolated mouse liver mitochondria; assay: Oxygen consumption of isolated mouse liver mitochondria; format: biochemical; conditions: state 3
Protocol: For all aforementioned substrates, measurements were performed in parallel without or with 2 μM rotenone in order to calculate (EC20), as previously mentioned. Oxygen consumption was measured in real-time for 60 min at 37 °C in 96-well plates using a spectrofluorometer (Tecan Infinite® 200; λExcitation 380 nm; λEmission 650 nm). The slope of fluorescence increase, corresponding to the rate of oxygen consumption, was used for calculations. EC20 was thus assessed as previously described by compiling the percentage of inhibition obtained from 4 to 12 experiments.

## COc1ccc2c(c1)c(CC(=O)O)c(C)n2C(=O)c1ccc(Cl)cc1 [INDO, indomethacin]
ATP citrate lyase (ACLY)
  ACLY mRNA level: augmented mRNA abundance
[1]
  FASN mRNA level: augmented mRNA abundance

## CO[C@H]1/C=C/O[C@@]2(C)Oc3c(C)c(O)c4c(O)c(c(/C=N/N5CCN(C)CC5)c(O)c4c3C2=O)NC(=O)/C(C)=C\C=C\[C@H](C)[C@H](O)[C@@H](C)[C@@H](O)[C@@H](C)[C@H](OC(C)=O)[C@@H]1C [RIF, rifampicin]
HepaRG cells
  Loss of cellular ATP relative to the maximum concentration selected for the study: 300 µM (loss of cellular ATP above 30% of the controls for higher concentrations, as shown in Supp. fig 1)
[2]
  EC20 for inhibition of O2 consumption, glutamate/malate: 34 ± 12 µM
  EC20 for inhibition of O2 consumption, octanoyl-L-carnitine: 17 ± 2 µM
  EC20 for inhibition of O2 consumption, palmitoyl-L-carnitine: 16 ± 3 µM
  EC20 for inhibition of O2 consumption, palmitoyl-coenzyme A + L-carnitine: 20 ± 4 µM
